ChEMBL document CHEMBL2150867, “Comparative study of the affinity and metabolism of type I and type II binding quinoline carboxamide analogues by cytochrome P450 3A4” (J Med Chem, 2012)

Assays:
Format in all cases: ADME
Cytochrome P450 3A4 [1] = biological target: T1, Cytochrome P450 3A4 (Homo sapiens, UniProt P08684); test: Binding affinity to recombinant CYP3A4 NF-14 expressed in Escherichia coli at maximum spectrum 420 to 435 and a trough at 390 to 405 nm by UV-Visible spectroscopy; conditions: recombinant enzyme, 0.405 µM
Cytochrome P450 3A4 [2] = biological target: T1, Cytochrome P450 3A4; test: Inhibition of recombinant CYP3A4 NF-14 expressed in Escherichia coli assessed as formation of 6-beta-hydroxytestosterone using testosterone as substrate after 5 mins by HPLC based UV method
Cytochrome P450 3A4 [3] = biological target: T1, Cytochrome P450 3A4; test: Intrinsic clearance assessed as CYP3A4-mediated clearance; conditions: recombinant enzyme
Cytochrome P450 3A4 [4] = biological target: T1, Cytochrome P450 3A4; test: Metabolic stability of the compound assessed as CYP3A4 NF-14-mediated aromatic hydroxylation at ring-A
Cytochrome P450 3A4 [5] = biological target: T1, Cytochrome P450 3A4; test: Metabolic stability of the compound assessed as CYP3A4 NF-14-mediated ratio of product formation from functional group oxidation at ring A to aromatic hydroxylation at ring A
Cytochrome P450 3A4 [6] = biological target: T1, Cytochrome P450 3A4; test: Binding affinity to recombinant CYP3A4 NF-14 expressed in Escherichia coli at maximum spectrum 385 to 390 nm and a trough at 415 to 420 nm by UV-Visible spectroscopy; conditions: recombinant enzyme
Cytochrome P450 3A4 [7] = biological target: T1, Cytochrome P450 3A4; test: Metabolic stability of the compound assessed as CYP3A4 NF-14-mediated ratio of product formation from functional group oxidation at ring A to aromatic hydroxylation at ring B
CYP3A4 = CYP3A4 (Homo sapiens, UniProt P08684); test: (§1) Metabolic stability of the compound assessed as CYP3A4 NF-14-mediated N-demethylation; conditions: human, CYP3A4 NF-14
Cytochrome P450 3A4 [8] = biological target: T1, Cytochrome P450 3A4; test: as §1
Cytochrome P450 3A4 [9] = biological target: T1, Cytochrome P450 3A4; test: Metabolic stability of the compound assessed as CYP3A4 NF-14-mediated aromatic hydroxylation at ring-B

T1 sequence (P08684 whole entry): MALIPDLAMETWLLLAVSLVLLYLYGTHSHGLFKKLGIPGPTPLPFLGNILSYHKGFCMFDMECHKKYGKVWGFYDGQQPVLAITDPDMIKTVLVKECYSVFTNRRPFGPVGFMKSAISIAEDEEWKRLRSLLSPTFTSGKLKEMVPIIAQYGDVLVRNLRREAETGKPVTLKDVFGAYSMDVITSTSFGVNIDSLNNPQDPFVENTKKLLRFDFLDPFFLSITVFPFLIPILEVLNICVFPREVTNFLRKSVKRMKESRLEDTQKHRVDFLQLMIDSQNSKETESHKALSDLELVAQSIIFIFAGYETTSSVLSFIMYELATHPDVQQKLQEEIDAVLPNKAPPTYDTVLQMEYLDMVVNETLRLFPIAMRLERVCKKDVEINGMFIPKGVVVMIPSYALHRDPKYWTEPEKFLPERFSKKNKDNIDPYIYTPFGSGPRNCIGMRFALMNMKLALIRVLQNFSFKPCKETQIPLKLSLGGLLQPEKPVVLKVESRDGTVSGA
Chain of CYP3A4 (P08684 whole entry): as above

SMILES	Activity (Cytochrome P450 3A4 [1])	Ki (Cytochrome P450 3A4 [2])	CL (Cytochrome P450 3A4 [3])	Activity (Cytochrome P450 3A4 [6])	other results
CN(C)c1ccc(NC(=O)c2cc(-c3ccncn3)nc3ccccc23)cc1	Active	8.4 µM	3.4 µM⁻¹ min⁻¹	–	–
CN(C)c1ccc(NC(=O)c2cc(-c3ccccn3)nc3ccccc23)cc1	–	32.9 µM	1 µM⁻¹ min⁻¹	Active	–
CN(C)c1ccc(NC(=O)c2cc(-c3ccccc3)nc3ccccc23)cc1	–	14.4 µM	9.6 µM⁻¹ min⁻¹	Active	Km (CYP3A4): 2.9 µM; Kcat (Cytochrome P450 3A4 [8]): 0.465 s⁻¹; Kcat (Cytochrome P450 3A4 [9]): 0 s⁻¹
COc1ccc(NC(=O)c2cc(-c3ccccn3)nc3ccccc23)cc1	–	11.9 µM	2.2 µM⁻¹ min⁻¹	Active	–
COc1ccc(NC(=O)c2cc(-c3cnccn3)nc3ccccc23)cc1	Active	20.1 µM	3.4 µM⁻¹ min⁻¹	–	–
CN(C)c1ccc(NC(=O)c2cc(-c3cnccn3)nc3ccccc23)cc1	Active	15.9 µM	2.8 µM⁻¹ min⁻¹	–	–
O=C(Nc1ccccc1)c1cc(-c2cnccn2)nc2ccccc12	Active	6.9 µM	2.5 µM⁻¹ min⁻¹	–	–
O=C(Nc1ccccc1)c1cc(-c2ccccn2)nc2ccccc12	–	14.5 µM	1.3 µM⁻¹ min⁻¹	Active	–

The next compounds have a lower Ki (Cytochrome P450 3A4 [2]) than those just listed; values first:

Activity (Cytochrome P450 3A4 [1])	Ki (Cytochrome P450 3A4 [2])	CL (Cytochrome P450 3A4 [3])	Activity (Cytochrome P450 3A4 [6])	SMILES	other results
–	4.1 µM	1.3 µM⁻¹ min⁻¹	Active	O=C(Nc1ccccc1)c1cc(-c2ccccc2)nc2ccccc12	Ratio (Cytochrome P450 3A4 [7]): 1.3
–	3.97 µM	3.4 µM⁻¹ min⁻¹	Active	Cc1ccc(NC(=O)c2cc(-c3ccccc3)nc3ccccc23)cc1	Ratio (Cytochrome P450 3A4 [7]): 6
–	3.9 µM	2.9 µM⁻¹ min⁻¹	Active	Cc1ccc(NC(=O)c2cc(-c3ccccn3)nc3ccccc23)cc1	–
Active	3 µM	4 µM⁻¹ min⁻¹	–	Cc1ccc(NC(=O)c2cc(-c3ccncn3)nc3ccccc23)cc1	–
Active	2.7 µM	3.3 µM⁻¹ min⁻¹	–	Cc1ccc(NC(=O)c2cc(-c3cnccn3)nc3ccccc23)cc1	–
Active	2.2 µM	3.2 µM⁻¹ min⁻¹	–	O=C(Nc1ccccc1)c1cc(-c2ccncn2)nc2ccccc12	–
Active	2.2 µM	3.3 µM⁻¹ min⁻¹	–	COc1ccc(NC(=O)c2cc(-c3ccncn3)nc3ccccc23)cc1	–
Active	0.8 µM	12.7 µM⁻¹ min⁻¹	–	CN(C)c1ccc(NC(=O)c2cc(-c3ccncc3)nc3ccccc23)cc1	Kcat (Cytochrome P450 3A4 [8]): 0.218 s⁻¹; Kcat (Cytochrome P450 3A4 [4]): 0 s⁻¹
Active	0.7 µM	12.1 µM⁻¹ min⁻¹	–	O=C(Nc1ccccc1)c1cc(-c2ccncc2)nc2ccccc12	Ratio (Cytochrome P450 3A4 [5]): 1.3
Active	0.54 µM	4.4 µM⁻¹ min⁻¹	–	COc1ccc(NC(=O)c2cc(-c3ccncc3)nc3ccccc23)cc1	Kcat (Cytochrome P450 3A4 [4]): 0.0217 s⁻¹; Km (Cytochrome P450 3A4 [4]): 0.7 µM; Ratio (Cytochrome P450 3A4 [5]): 1.4
Active	0.54 µM	9.7 µM⁻¹ min⁻¹	–	Cc1ccc(NC(=O)c2cc(-c3ccncc3)nc3ccccc23)cc1	Ratio (Cytochrome P450 3A4 [5]): 4.4
